From publication PMC3352081, “Discovery of catalytically active orthologues of the Parkinson's disease kinase PINK1: analysis of substrate specificity and impact of mutations” (Open biology, 2011)
Where “and” joins values, the source holds several entries; their conditions need not be identical. Identical values can stand only once.

Target: T1, full-length TcPINK1 (1–570) (Tribolium castaneum, UniProt D6WMX4)
T1 construct: Kinetics of phosphorylation of PINKtide and indicated variants by full-length TcPINK1 (1–570); made in house; host or cells: E. coli BL21 Codon+
T1 sequence (D6WMX4 1-570): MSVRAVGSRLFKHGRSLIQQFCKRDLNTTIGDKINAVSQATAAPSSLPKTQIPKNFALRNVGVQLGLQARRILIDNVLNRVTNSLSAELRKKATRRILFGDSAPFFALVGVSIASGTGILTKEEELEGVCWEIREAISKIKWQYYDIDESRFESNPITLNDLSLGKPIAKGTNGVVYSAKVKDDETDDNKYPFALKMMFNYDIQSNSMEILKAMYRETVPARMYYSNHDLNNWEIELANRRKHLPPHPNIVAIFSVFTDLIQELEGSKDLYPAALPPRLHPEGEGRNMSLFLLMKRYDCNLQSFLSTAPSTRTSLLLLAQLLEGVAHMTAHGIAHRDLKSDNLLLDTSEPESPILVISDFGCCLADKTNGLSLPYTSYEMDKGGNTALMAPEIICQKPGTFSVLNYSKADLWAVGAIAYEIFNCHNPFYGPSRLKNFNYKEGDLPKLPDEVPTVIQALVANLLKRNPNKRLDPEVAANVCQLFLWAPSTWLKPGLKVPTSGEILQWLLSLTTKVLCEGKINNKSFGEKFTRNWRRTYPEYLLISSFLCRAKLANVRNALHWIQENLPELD
Experiment: Peptide substrate kinase assay: phosphorylation of PINKtide and variants, [γ-32P] ATP, P81 paper
Assay type: biochemical
Conditions: phosphorylation of the peptide substrate by full-length TcPINK1 (1–570), kinase 1 µM, 0.1 mM [γ-32P] ATP, 30°C, n.d. = peptide phosphorylated poorly, kinetic values not determinable; for Km: 10 mM MgCl2, 50 mM Tris–HCl pH 7.5, 30 min, nonlinear regression (GraphPad Prism), similar results in at least two experiments; for Vmax: 30 min, 1 U = incorporation of 1 nmol of ATP into substrate, nonlinear regression
Procedure: For assays using peptide substrates, assays were set up in a volume of 50 µl, with all kinases at 1 µM and peptide substrates at the indicated concentrations in 50 mM Tris–HCl (pH 7.5), 0.1 mM EGTA, 10 mM MgCl2, 2 mM dithiothreitol and 0.1 mM [γ-^32P] ATP. Assays were incubated for 30 min at 30°C with shaking at 1200 r.p.m., and terminated by spotting of 40 µl of the reaction mixture onto P81 phosphocellulose paper and washing in 50 mM phosphoric acid. After extensive further washing, incorporation of [γ-^32P] ATP into substrates was quantified by Cerenkov counting. For MBP assays using P81 paper, 5 µg of MBP was used.
One unit of TcPINK1 activity was defined as the amount of enzyme that catalysed the incorporation of 1 nmol of ATP into a given substrate. Km and Vmax values were determined by analysing the phosphorylation of PINKtide and its variants at various concentrations. Km and Vmax values were calculated using the GRAPHPAD PRISM program.

Row | Substance | Km | Vmax [U mg^−1]
1 | KKAIpYRRSPRRR [PINKtide variant at the −5 position] | 435 µM | 8
2 | KKEIpYRRSPRRR [PINKtide variant at the −5 position] | 192 µM | 6
3 | KKFIpYRRSPRRR [PINKtide variant at the −5 position] | 163 µM | 3
4 | KKKIpYRRSPRRR [PINKtide variant at the −5 position] | 165 µM | 2
5 | KKLIpYRRSPRRR [PINKtide variant at the −5 position] | 381 µM | 5
6 | KKWIERRSPRRR [PINKtide variant at the −3 position] | 36 µM | 2
7 | KKWIFRRSPRRR [PINKtide variant at the −3 position] | 63 µM | 2
8 | KKWIKRRSPRRR [PINKtide variant at the −3 position] | 50 µM | 1
9 | KKWISRRSPRRR [PINKtide variant at the −3 position] | 81 µM | 3
10 | KKWITRRSPRRR [PINKtide variant at the −3 position] | 278 µM | 3
11 | KKWIYRRSPRRR [PINKtide variant at the −3 position] | 30 µM | 3
12 | KKWIpSRRSPRRR [PINKtide variant at the −3 position] | 117 µM | 3
13 | KKWIpTRRSPRRR [PINKtide variant at the −3 position] | 970 µM | 8
14 | KKWIpYRRSPRRR [PINKtide, optimal peptide substrate for TcPINK1, KKWIpYRRSPRRR] | 493 µM and ~500 µM | –
15 | KKWIpYRRTPRRR [PINKtide variant, phosphorylated Ser changed to Thr] | 756 µM | 8
